Inconclusive results and toxic doses are left out.
Tested on: CD2F1 mice, L1210 leukemia ip, survival T/C
Assay: NCI In Vivo Anticancer Drug Screen. Data for tumor model L1210 Leukemia (intraperitoneal) in CD2F1 (CDF1) mice
Conditions: higher = longer survival
How it was run: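 Implant tumor; dose compound or vehicle; measure endpoint in both groups; report treated divided by control.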

[1] = endpoint: mean survival time, dose: 100.0 mg/kg/injection, schedule: Q04DX003 (ip), vehicle: saline with Tween-80
[2] = endpoint: mean survival time, dose: 200.0 mg/kg/injection, schedule: Q04DX003 (ip), vehicle: saline with Tween-80
[3] = endpoint: mean survival time, dose: 400.0 mg/kg/injection, schedule: Q04DX003 (ip), vehicle: saline with Tween-80
[4] = endpoint: mean survival time, dose: 100.0 mg/kg/injection, schedule: Q01DX009 (ip), vehicle: saline with Tween-80
[5] = endpoint: mean survival time, dose: 200.0 mg/kg/injection, schedule: Q01DX009 (ip), vehicle: saline with Tween-80
[6] = endpoint: mean survival time, dose: 50.0 mg/kg/injection, schedule: Q01DX009 (ip), vehicle: saline with Tween-80
[7] = endpoint: mean survival time, dose: 100.0 mg/kg/injection, schedule: Q01DX001 (ip), vehicle: saline with Tween-80
[8] = endpoint: mean survival time, dose: 200.0 mg/kg/injection, schedule: Q01DX001 (ip), vehicle: saline with Tween-80

N/C(=N\OC(=O)Nc1ccc(CSc2ccc(Cl)cc2)o1)c1ccccn1
T/C (endpoint: median survival time, dose: 12.5 mg/kg/injection, schedule: Q01DX009 (ip), vehicle: Klucel (hydroxypropylcellulose) (HPC)): 98 % of control
T/C (endpoint: median survival time, dose: 25.0 mg/kg/injection, schedule: Q01DX009 (ip), vehicle: Klucel (hydroxypropylcellulose) (HPC)): 103 % of control
T/C (endpoint: median survival time, dose: 50.0 mg/kg/injection, schedule: Q01DX009 (ip), vehicle: Klucel (hydroxypropylcellulose) (HPC)): 102 % of control
T/C (endpoint: median survival time, dose: 100.0 mg/kg/injection, schedule: Q01DX009 (ip), vehicle: Klucel (hydroxypropylcellulose) (HPC)): 102 % of control
T/C (endpoint: median survival time, dose: 200.0 mg/kg/injection, schedule: Q01DX009 (ip), vehicle: Klucel (hydroxypropylcellulose) (HPC)): 95 % of control

CCn1c(=O)c2nc(Br)n(C3OCC(OC(C)=O)C(OC(C)=O)C3OC(C)=O)c2n(CC)c1=O (centres undefined)
T/C (endpoint: mean survival time, dose: 12.5 mg/kg/injection, schedule: Q01DX005 (ip), vehicle: distilled water + Tween-80): 104 % of control
T/C (endpoint: mean survival time, dose: 25.0 mg/kg/injection, schedule: Q01DX005 (ip), vehicle: distilled water + Tween-80): 104 % of control
T/C (endpoint: mean survival time, dose: 50.0 mg/kg/injection, schedule: Q01DX005 (ip), vehicle: distilled water + Tween-80): 100 % of control
T/C (endpoint: mean survival time, dose: 100.0 mg/kg/injection, schedule: Q01DX005 (ip), vehicle: distilled water + Tween-80): 93 % of control
T/C (endpoint: mean survival time, dose: 200.0 mg/kg/injection, schedule: Q01DX005 (ip), vehicle: distilled water + Tween-80): 88 % of control

O=C(Nc1ccc(C(=O)O)cc1)OCc1ccccc1
T/C [1]: 100 % of control
T/C [2]: 101 % of control
T/C [3]: 91 % of control

COc1ccccc1NC(C)=O
T/C [4]: 96 % of control
T/C [1]: 101 % of control
T/C [5]: 98 % of control
T/C [2]: 96 % of control
T/C (endpoint: mean survival time, dose: 400.0 mg/kg/injection, schedule: Q01DX009 (ip), vehicle: saline with Tween-80): 96 % of control
T/C [3]: 101 % of control

CCC(=O)OC(=N)C(=N)OC(=O)CC
T/C (endpoint: mean survival time, dose: 25.0 mg/kg/injection, schedule: Q04DX002 (ip), vehicle: saline with Tween-80): 98 % of control
T/C (endpoint: mean survival time, dose: 50.0 mg/kg/injection, schedule: Q04DX002 (ip), vehicle: saline with Tween-80): 98 % of control
T/C (endpoint: mean survival time, dose: 100.0 mg/kg/injection, schedule: Q04DX002 (ip), vehicle: saline with Tween-80): 98 % of control
T/C (endpoint: mean survival time, dose: 200.0 mg/kg/injection, schedule: Q04DX002 (ip), vehicle: saline with Tween-80): 95 % of control

O=C(O)c1cc([N+](=O)[O-])ccc1Br
T/C [1]: 103 % of control
T/C [2]: 105 % of control
T/C [3]: 95 % of control

O=S(=O)(Nc1c(Cl)c(Cl)c(NS(=O)(=O)c2ccccc2)c(Cl)c1Cl)c1ccccc1
T/C (endpoint: mean survival time, dose: 100.0 mg/kg/injection, schedule: Q04DX003 (ip), vehicle: Klucel (hydroxypropylcellulose) (HPC)): 98 % of control
T/C (endpoint: mean survival time, dose: 200.0 mg/kg/injection, schedule: Q04DX003 (ip), vehicle: Klucel (hydroxypropylcellulose) (HPC)): 91 % of control
T/C (endpoint: mean survival time, dose: 400.0 mg/kg/injection, schedule: Q04DX003 (ip), vehicle: Klucel (hydroxypropylcellulose) (HPC)): 103 % of control

CN1NC=Nc2c(SCc3ccccc3)ncnc21
T/C (endpoint: mean survival time, dose: 75.0 mg/kg/injection, schedule: Q01DX001 (ip), vehicle: other): 98 % of control

CCCC(CC(=O)O)(C(=O)O)c1ccccc1 (centres undefined)
T/C (endpoint: mean survival time, dose: 100.0 mg/kg/injection, schedule: Q01DX009 (ip), vehicle: other): 108 % of control
T/C (endpoint: mean survival time, dose: 100.0 mg/kg/injection, schedule: Q04DX003 (ip), vehicle: other): 93 % of control
T/C (endpoint: mean survival time, dose: 200.0 mg/kg/injection, schedule: Q01DX009 (ip), vehicle: other): 91 % of control
T/C (endpoint: mean survival time, dose: 200.0 mg/kg/injection, schedule: Q04DX003 (ip), vehicle: other): 97 % of control
T/C (endpoint: mean survival time, dose: 400.0 mg/kg/injection, schedule: Q01DX009 (ip), vehicle: other): 91 % of control
T/C (endpoint: mean survival time, dose: 400.0 mg/kg/injection, schedule: Q04DX003 (ip), vehicle: other): 98 % of control

Cn1cnc([N+](=O)[O-])c1[Se]c1nc(N)nc2nc[nH]c12
T/C (endpoint: mean survival time, dose: 3.12 mg/kg/injection, schedule: Q01DX009 (ip), vehicle: water): 111 % of control
T/C (endpoint: mean survival time, dose: 6.25 mg/kg/injection, schedule: Q01DX009 (ip), vehicle: water): 124 % of control
T/C (endpoint: mean survival time, dose: 7.3 mg/kg/injection, schedule: Q01DX005 (ip), vehicle: water): 121 % of control
T/C (endpoint: mean survival time, dose: 25.0 mg/kg/injection, schedule: Q01DX005 (ip), vehicle: water): 153 % of control
T/C (endpoint: mean survival time, dose: 25.0 mg/kg/injection, schedule: Q01DX009 (ip), vehicle: water): 160 % of control
T/C (endpoint: mean survival time, dose: 37.5 mg/kg/injection, schedule: Q01DX005 (ip), vehicle: water): 178 % of control
T/C (endpoint: mean survival time, dose: 50.0 mg/kg/injection, schedule: Q01DX009 (ip), vehicle: water): 151 % of control

COc1cc(Cl)ccc1NC(=O)OCCOc1ccc(Cl)cc1
T/C [6]: 91 % of control
T/C [4]: 88 % of control
T/C [5]: 91 % of control

O=C(COc1ccc(Cl)c(Cl)c1)Nc1cccc(S(=O)(=O)F)c1
T/C [7]: 95 % of control
T/C [8]: 95 % of control
T/C (endpoint: mean survival time, dose: 400.0 mg/kg/injection, schedule: Q01DX001 (ip), vehicle: saline with Tween-80): 91 % of control

CC(O)CNc1nc(N)[nH]c(=O)c1[N+](=O)[O-] (centres undefined)
T/C [7]: 94 % of control
T/C [8]: 89 % of control

NCc1cn(C2OC(CO)C(O)C2O)c2nc[nH]c(=O)c12 (centres undefined)
T/C (endpoint: mean survival time, dose: 25.0 mg/kg/injection, schedule: Q01DX009 (ip), vehicle: distilled water + Tween-80): 103 % of control
T/C (endpoint: mean survival time, dose: 50.0 mg/kg/injection, schedule: Q01DX009 (ip), vehicle: distilled water + Tween-80): 103 % of control
T/C (endpoint: mean survival time, dose: 100.0 mg/kg/injection, schedule: Q01DX009 (ip), vehicle: distilled water + Tween-80): 101 % of control
T/C (endpoint: mean survival time, dose: 200.0 mg/kg/injection, schedule: Q01DX009 (ip), vehicle: distilled water + Tween-80): 98 % of control
T/C (endpoint: mean survival time, dose: 400.0 mg/kg/injection, schedule: Q01DX009 (ip), vehicle: distilled water + Tween-80): 115 % of control

CC(C)(CNC1CCCCC1)OC(=O)c1ccc([N+](=O)[O-])cc1
T/C (endpoint: mean survival time, dose: 75.0 mg/kg/injection, schedule: Q01DX001 (ip), vehicle: saline): 94 % of control
T/C (endpoint: mean survival time, dose: 150.0 mg/kg/injection, schedule: Q01DX001 (ip), vehicle: saline): 99 % of control
T/C (endpoint: mean survival time, dose: 300.0 mg/kg/injection, schedule: Q01DX001 (ip), vehicle: saline): 94 % of control

CNC(=O)n1c(N)nc(-c2ccccc2)c1-c1ccccc1
T/C (endpoint: median survival time, dose: 6.25 mg/kg/injection, schedule: Q01DX009 (ip), vehicle: saline with Tween-80): 101 % of control
T/C (endpoint: median survival time, dose: 12.5 mg/kg/injection, schedule: Q01DX009 (ip), vehicle: saline with Tween-80): 103 % of control
T/C (endpoint: median survival time, dose: 25.0 mg/kg/injection, schedule: Q01DX009 (ip), vehicle: saline with Tween-80): 114 % of control
T/C (endpoint: median survival time, dose: 50.0 mg/kg/injection, schedule: Q01DX009 (ip), vehicle: saline with Tween-80): 119 % of control
T/C (endpoint: median survival time, dose: 100.0 mg/kg/injection, schedule: Q01DX009 (ip), vehicle: saline with Tween-80): 98 % of control

CC1=C(C)C2(C)C(C)C2(C)C1C (centres undefined)
T/C [1]: 90 % of control
T/C [2]: 110 % of control
T/C [3]: 98 % of control

CCOC(=O)NN=C1CCCC1
T/C (endpoint: mean survival time, dose: 12.5 mg/kg/injection, schedule: Q01DX009 (ip), vehicle: saline with Tween-80): 88 % of control
T/C (endpoint: mean survival time, dose: 25.0 mg/kg/injection, schedule: Q01DX009 (ip), vehicle: saline with Tween-80): 88 % of control
T/C [6]: 92 % of control

CC(=O)NS(=O)(=O)c1ccc([NH-])cc1.CC(=O)NS(=O)(=O)c1ccc([NH-])cc1.[I][Pt+2][I]
T/C (endpoint: mean survival time, dose: 25.0 mg/kg/injection, schedule: Q04DX003 (ip), vehicle: saline with Tween-80): 96 % of control
T/C (endpoint: mean survival time, dose: 50.0 mg/kg/injection, schedule: Q04DX003 (ip), vehicle: saline with Tween-80): 94 % of control
T/C [1]: 107 % of control
T/C [2]: 100 % of control
T/C [3]: 103 % of control

CCCCCCCCCCCCNC(=O)C[n+]1cccc(C(=O)NC)c1
T/C (endpoint: mean survival time, dose: 12.5 mg/kg/injection, schedule: Q01DX009 (ip), vehicle: saline): 98 % of control
T/C (endpoint: mean survival time, dose: 18.8 mg/kg/injection, schedule: Q04DX003 (ip), vehicle: saline): 98 % of control
T/C (endpoint: mean survival time, dose: 25.0 mg/kg/injection, schedule: Q01DX009 (ip), vehicle: saline): 101 % of control
T/C (endpoint: mean survival time, dose: 37.5 mg/kg/injection, schedule: Q04DX003 (ip), vehicle: saline): 95 % of control
T/C (endpoint: mean survival time, dose: 50.0 mg/kg/injection, schedule: Q01DX009 (ip), vehicle: saline): 98 % of control
T/C (endpoint: mean survival time, dose: 75.0 mg/kg/injection, schedule: Q04DX003 (ip), vehicle: saline): 101 % of control

O=c1n(-c2ccccc2)c(=O)n2n1C1C=CC2C2CC2/C=C\1 (centres undefined)
T/C (endpoint: median survival time, dose: 50.0 mg/kg/injection, schedule: Q04DX002 (ip), vehicle: saline with Tween-80): 112 % of control
T/C (endpoint: median survival time, dose: 100.0 mg/kg/injection, schedule: Q04DX002 (ip), vehicle: saline with Tween-80): 112 % of control
T/C (endpoint: median survival time, dose: 200.0 mg/kg/injection, schedule: Q04DX002 (ip), vehicle: saline with Tween-80): 87 % of control
